# Measurements from PubChem BioAssay AID2060901 (Molecular Pharmacology Branch, DTP, NCI, 2025).
# System: 422866-222-R5-J1-PDC complex spheroids viability
# Assay: Anticancer human tumor 422866-222-R5-J1-PDC patient-derived pancreatic adenocarcinoma cell line growth inhibition [RAS]
# Details: for IC50: curve of first compound; for viability, T/C: stronger effect = lower value
# Method in brief: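 Agents were tested in combination matrices in half-log decrements from a top concentration at or near clinical Cmax (10 microM if undetermined). Targets were multi-cell spheroids of tumour lines plus HUVEC and MSC stromal cells.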
# [1] = second compound 0.000949 µM, first compound 0.0316 µM
# [2] = second compound 0.000949 µM, first compound 0.1 µM
# [3] = second compound 0.003 µM, first compound 0.0316 µM
# [4] = second compound 0.003 µM, first compound 0.1 µM
# [5] = second compound 0.00949 µM, first compound 0.0316 µM
# [6] = second compound 0.00949 µM, first compound 0.1 µM
# [7] = second compound 0.03 µM, first compound 0.0316 µM
# [8] = second compound 0.03 µM, first compound 0.1 µM
# [9] = second compound 0.0949 µM, first compound 0.0316 µM
# [10] = second compound 0.0949 µM, first compound 0.1 µM
# [11] = second compound 0.3 µM, first compound 0.0316 µM
# [12] = second compound 0.3 µM, first compound 0.1 µM
# 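Also: spheroids exposed to compounds for 7 days.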
# 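For viability, T/C in this document: 100% = DMSO vehicle control viability.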
structure (smiles),measurement,setting,value
Cc1nc(N2CCC3(CC2)COC(C)C3N)c(CO)nc1Sc1ccnc(N)c1Cl (centres undefined) + CCn1c(-c2cc(N3CCN(C)CC3)cnc2C(C)OC)c2c3cc(ccc31)-c1csc(n1)CC(NC(=O)C1CC1C)C(=O)N1CCCC(N1)C(=O)OCC(C)(C)C2,IC50,second compound 0.000949 µM,< 0.0316 µM
same,IC50,second compound 0.003 µM,< 0.0316 µM
same,IC50,second compound 0.00949 µM,< 0.0316 µM
same,IC50,second compound 0.03 µM,< 0.0316 µM
same,IC50,second compound 0.0949 µM,< 0.0316 µM
same,IC50,second compound 0.3 µM,< 0.0316 µM
same,"viability, T/C",[1],29.3%
same,"viability, T/C",[2],23.1%
same,"viability, T/C","second compound 0.000949 µM, first compound 0.316 µM",21.6%
same,"viability, T/C","second compound 0.000949 µM, first compound 1 µM",17.4%
same,"viability, T/C","second compound 0.000949 µM, first compound 3.16 µM",18.1%
same,"viability, T/C","second compound 0.000949 µM, first compound 10 µM",20.2%
same,"viability, T/C",[3],23.6%
same,"viability, T/C",[4],18.5%
same,"viability, T/C","second compound 0.003 µM, first compound 0.316 µM",16.3%
same,"viability, T/C","second compound 0.003 µM, first compound 1 µM",16.7%
same,"viability, T/C","second compound 0.003 µM, first compound 3.16 µM",18.1%
same,"viability, T/C","second compound 0.003 µM, first compound 10 µM",21.2%
same,"viability, T/C",[5],19.2%
same,"viability, T/C",[6],16.1%
same,"viability, T/C","second compound 0.00949 µM, first compound 0.316 µM",19.1%
same,"viability, T/C","second compound 0.00949 µM, first compound 1 µM",15.8%
same,"viability, T/C","second compound 0.00949 µM, first compound 3.16 µM",20.8%
same,"viability, T/C","second compound 0.00949 µM, first compound 10 µM",22.1%
same,"viability, T/C",[7],17.4%
same,"viability, T/C",[8],16.3%
same,"viability, T/C","second compound 0.03 µM, first compound 0.316 µM",18.6%
same,"viability, T/C","second compound 0.03 µM, first compound 1 µM",17.5%
same,"viability, T/C","second compound 0.03 µM, first compound 3.16 µM",20.3%
same,"viability, T/C","second compound 0.03 µM, first compound 10 µM",20.4%
same,"viability, T/C",[9],21%
same,"viability, T/C",[10],20.6%
same,"viability, T/C","second compound 0.0949 µM, first compound 0.316 µM",20%
same,"viability, T/C","second compound 0.0949 µM, first compound 1 µM",17.8%
same,"viability, T/C","second compound 0.0949 µM, first compound 3.16 µM",21.7%
same,"viability, T/C","second compound 0.0949 µM, first compound 10 µM",22.3%
same,"viability, T/C",[11],20.1%
same,"viability, T/C",[12],20.2%
same,"viability, T/C","second compound 0.3 µM, first compound 0.316 µM",21.2%
same,"viability, T/C","second compound 0.3 µM, first compound 1 µM",18.1%
same,"viability, T/C","second compound 0.3 µM, first compound 3.16 µM",22.7%
same,"viability, T/C","second compound 0.3 µM, first compound 10 µM",24.4%
CC(C)n1nc(-c2ccc3oc(N)nc3c2)c2c(N)ncnc21 + CCn1c(-c2cccnc2C(C)OC)c2c3cc(ccc31)N1CCOC(CC(NC(=O)C(C(C)C)N(C)C(=O)C3(F)CCN(C(=O)C#CC(C)(C)N(C)C)CC3)C(=O)N3CCCC(N3)C(=O)OCC(C)(C)C2)C1,IC50,second compound 0.000949 µM,< 0.000316 µM
same,IC50,second compound 0.003 µM,< 0.000316 µM
same,IC50,second compound 0.00949 µM,< 0.000316 µM
same,IC50,second compound 0.03 µM,< 0.000316 µM
same,IC50,second compound 0.0949 µM,< 0.000316 µM
same,IC50,second compound 0.3 µM,< 0.000316 µM
same,"viability, T/C","second compound 0.000949 µM, first compound 0.000316 µM",26.9%
same,"viability, T/C","second compound 0.000949 µM, first compound 0.001 µM",24.3%
same,"viability, T/C","second compound 0.000949 µM, first compound 0.00316 µM",24.7%
same,"viability, T/C","second compound 0.000949 µM, first compound 0.01 µM",22.9%
same,"viability, T/C",[1],23.1%
same,"viability, T/C",[2],22.1%
same,"viability, T/C","second compound 0.003 µM, first compound 0.000316 µM",23.4%
same,"viability, T/C","second compound 0.003 µM, first compound 0.001 µM",18.7%
same,"viability, T/C","second compound 0.003 µM, first compound 0.00316 µM",21%
same,"viability, T/C","second compound 0.003 µM, first compound 0.01 µM",17.6%
same,"viability, T/C",[3],14.1%
same,"viability, T/C",[4],16.5%
same,"viability, T/C","second compound 0.00949 µM, first compound 0.000316 µM",23.4%
same,"viability, T/C","second compound 0.00949 µM, first compound 0.001 µM",25.9%
same,"viability, T/C","second compound 0.00949 µM, first compound 0.00316 µM",19.4%
same,"viability, T/C","second compound 0.00949 µM, first compound 0.01 µM",16.5%
same,"viability, T/C",[5],14.7%
same,"viability, T/C",[6],12.2%
same,"viability, T/C","second compound 0.03 µM, first compound 0.000316 µM",21.5%
same,"viability, T/C","second compound 0.03 µM, first compound 0.001 µM",17.6%
same,"viability, T/C","second compound 0.03 µM, first compound 0.00316 µM",17.5%
same,"viability, T/C","second compound 0.03 µM, first compound 0.01 µM",16.6%
same,"viability, T/C",[7],15.4%
same,"viability, T/C",[8],15.6%
same,"viability, T/C","second compound 0.0949 µM, first compound 0.000316 µM",17.8%
same,"viability, T/C","second compound 0.0949 µM, first compound 0.001 µM",15.4%
same,"viability, T/C","second compound 0.0949 µM, first compound 0.00316 µM",16.9%
same,"viability, T/C","second compound 0.0949 µM, first compound 0.01 µM",15.2%
same,"viability, T/C",[9],12.2%
same,"viability, T/C",[10],12.5%
same,"viability, T/C","second compound 0.3 µM, first compound 0.000316 µM",15.4%
same,"viability, T/C","second compound 0.3 µM, first compound 0.001 µM",18.8%
same,"viability, T/C","second compound 0.3 µM, first compound 0.00316 µM",15.2%
same,"viability, T/C","second compound 0.3 µM, first compound 0.01 µM",15.1%
same,"viability, T/C",[11],12.3%
same,"viability, T/C",[12],10.2%
